Reference: patent US10532106B2 (priority 2014, dated 2020)
Numbered stars: 1 amine (or outer) side, 2 acyl side, 3 side chain; on linkers, the order of the positions; unused ones are H or OH. Bridge positions count the residues as written; N and C are the ends. Square brackets hold non-standard residues; d marks the D form. Peptide text beside a SMILES is read from it. * marks the point of attachment. 5FAM = O=C1OC2(c3ccc(O)cc3Oc3cc(O)ccc32)c2ccc(C(=O)*)cc21; Phe(4-Br) = N[C@@H](Cc1ccc(Br)cc1)C(=O)O; 1Nal = N[C@@H](Cc1cccc2ccccc12)C(=O)O; TBMB = c1c(C[*:1])cc(C[*:3])cc1C[*:2]; Tle = CC(C)(C)[C@H](N)C(=O)O; βAla = NCCC(=O)O; Sar = CNCC(=O)O

Tests used:
[1] = Mouse pharmacokinetics, intravenous; type: in vivo; settings: plasma, male CD1 mice, single intravenous 5.925 mg/kg
Procedure: Mouse pharmacokinetics were acquired using bicyclic peptide 17-69-04-N004, which was dosed to one group of 12 male CD1 mice as a single intravenous, 5.925 mg/kg doses as a 5 mL/kg bolus of a 1.19 mg/mL solution. […] Blood samples were taken from two animals per time-point, via cardiac puncture under terminal anaesthesia, at 0.08, 0.5, 1, 2 and 4 hours post-dose, and transferred to EDTA tubes for plasma generation. Plasma samples were immediately frozen at −20 C. For analysis, samples were thawed rapidly and 50 μL aliquots were treated with 3 volumes of extraction solvent (2:9:9 mixture of 10 mM ammonium bicarbonate, pH 8, acetonitrile and methanol, containing an analytical internal standard). Precipitated proteins were removed by centrifugation and the supernatant was analysed by LC-MS/MS. Quantification of the samples was by reference to a calibration line prepared in control mouse plasma. Pharmacokinetic parameters were determined by non-compartmental analysis using the software package PK Solutions 2.0 from Summit Research Services.

MT1-MMP hemopexin domain [2] = biological target: T1, MT1-MMP hemopexin domain (Homo sapiens, UniProt P50281); assay: Direct binding fluorescence polarisation (FP) assay
T1 construct: residues Cys319-Gly511 from the human gene; His6 (N); made in house; host or cells: HEK293 (transient), pEXPR-IBA42 vector
Procedure: Direct Binding Fluorescence Polarisation or Anisotropy Assays are performed by titrating a constant concentration of fluorescent tracer (here, the fluoresceinated bicyclic peptide to be studied) with its binding partner (here, the MT1-MMP hemopexin domain). As the concentration of binding partner increases during the titration, the polarisation signal changes in proportion to the fraction of bound and unbound material. This allows determination of […] (Kd) quantitatively. Assay data can be fit using standard ligand binding equations.
The titrant (binding partner) concentration is varied from 0.1 nM up to typically 5 μM. The range is chosen such that the maximum change in fluorescent polarisation can be observed. Buffers employed are phosphate buffered saline in the presence of 0.01% Tween. Experiments were run in black 384 well low-bind/low volume plates (Corning 3820), and the fluorescent polarisation signal was measured using a BMG Pherastar FS plate reader.
Fluorescent tracers referred to in the text are bicyclic peptides that have been fluoresceinated using 5,6-carboxyfluorescein. Fluoresceination may be performed on the N-terminal amino group of the peptide, which is separated from the bicycle core sequence by a sarcosine spacer (usually Sar5). This can be done during Fmoc solid phase synthesis or post-synthetically (after cyclisation with TBMB and purification) if the N-terminal amino group is unique to the peptide. Fluoresceination can also be performed on the C-terminus, usually on a Lysine introduced as the first C-terminal residue, which is then separated from the bicycle core sequence by a sarcosine spacer (usually Sar6). Thus, N-terminal tracers can have a molecular format described as Fluo-Gly-Sar5-A(BicycleCoreSequence), and (BicycleCoreSequence)-A-Sar6-K(Fluo) for a C-terminally fluoresceinated construct. Fluorescent tracers used in the Examples are A-(17-69)-A-Sar6-K(Fluo), A-(17-69-07)-A-Sar6-K(Fluo), and A-(17-69-12)-A-Sar6-K(Fluo). Due to the acidic nature of the 17-69 fluorescent peptides, they were typically prepared as concentrated DMSO stocks, from which dilution were prepared in 100 mM Tris pH 8 buffer.

MT1-MMP hemopexin domain [3] = biological target: T1, MT1-MMP hemopexin domain; assay: Competition assay using fluorescence polarisation; type: binding; settings: for Kd: read-out: Kd
Text: Here, a pre-formed complex of PEX with the fluorescent PEX-binding tracer is titrated with free, non-fluoresceinated bicyclic peptide. Since all 17-69-based peptides are expected to bind at the same site, the titrant will displace the fluorescent tracer from PEX. Dissociation of the complex can be measured quantitatively, and the Kd of the competitor (titrant) to the target protein determined. The advantage of the competition method is that the affinities of non-fluoresceinated bicyclic peptides can be determined accurately and rapidly.
Subsequently, the non-fluorescent competitor bicyclic peptide (usually just the bicycle core sequence) is titrated, such that it displaces the fluorescent tracer from the target protein. The displacement of the tracer is measured and associated with a drop in fluorescence polarisation. The drop in fluorescence polarisation is proportional to the fraction of target protein bound with the non-fluorescent titrant, and thus is a measure of the affinity of titrant to target protein.
The raw data is fit to the analytical solution of the cubic equation that describes the equilibria between fluorescent tracer, titrant, and binding protein. The fit requires the value of the affinity of fluorescent tracer to the target protein, which can be determined separately by direct binding FP experiments (see previous section).

[4] = Table 2, FP method Direct Binding, read-out: Kd

CC[C@H](C)[C@@H]1NC(=O)[C@H](CC(=O)O)NC(=O)[C@H](Cc2ccc(O)cc2)NC(=O)[C@H](Cc2ccccc2)NC(=O)[C@H](CC(=O)O)NC(=O)[C@H](CCC(=O)O)NC(=O)[C@@H]2CSCc3cc(cc(c3)CSC[C@H](NC(C)=O)C(=O)N[C@@H](Cc3ccc(O)cc3)C(=O)N[C@@H](CC(N)=O)C(=O)N[C@@H](CCC(=O)O)C(=O)N[C@@H](Cc3ccccc3)C(=O)NCC(=O)N2)CSC[C@@H](C(N)=O)NC1=O [17-69-07-N004, Ac-(17-69-07) (wildtype)]
AUC(0-inf) [1]: 4770 ng·h/mL | AUC(0-t) [1]: 4770 ng·h/mL | Cmax [1]: 15800 ng/mL | Tmax [1]: 5 min | clearance ([1]; read-out: Clearance based on AUC 0-∞): 20.7 mL/min/kg | half-life ([1]; read-out: Elimination Half-life): 14 min | Vd ([1]; read-out: Volume of Distribution based on AUC 0-∞): 0.4 L/kg

CC[C@H](C)[C@@H]1NC(=O)[C@H](CC(=O)O)NC(=O)[C@H](Cc2ccc(O)cc2)NC(=O)[C@H](Cc2ccccc2)NC(=O)[C@H](CC(=O)O)NC(=O)[C@H](CCC(=O)O)NC(=O)[C@@H]2CSCc3cc(cc(c3)CSC[C@@H](C(=O)N[C@@H](C)C(=O)N(C)CC(=O)N(C)CC(=O)N(C)CC(=O)N(C)CC(=O)N(C)CC(=O)N(C)CC(=O)N[C@@H](CCCCNC(=O)c3ccc4c(c3)C(=O)OC43c4ccc(O)cc4Oc4cc(O)ccc43)C(N)=O)NC1=O)CSC[C@H](NC(=O)[C@H](C)N)C(=O)N[C@@H](Cc1ccc(O)cc1)C(=O)N[C@@H](CC(N)=O)C(=O)N[C@@H](CCC(=O)O)C(=O)N[C@@H](Cc1ccccc1)C(=O)NCC(=O)N2 [17-69-07-N040, A-(17-69-07)-A-Sar6-K(Fl)] (H-ACYNEFGCEDFYDICA[Sar][Sar][Sar][Sar][Sar][Sar]K(5FAM)-NH2; linker 2-8-15 via TBMB)
Kd (MT1-MMP hemopexin domain [2]; [4]): 0.52 nM

CC(=O)NCC(=O)N(C)CC(=O)N(C)CC(=O)N(C)CC(=O)N(C)CC(=O)N(C)CC(=O)N(C)CC(=O)N(C)CC(=O)N(C)CC(=O)N(C)CC(=O)N(C)CC(=O)N[C@@H](C)C(=O)N[C@H]1CSCc2cc3cc(c2)CSC[C@H](NC(=O)[C@@H](C)NC(=O)[C@H](Cc2cccc4ccccc24)NC(=O)[C@H](CCC(=O)O)NC(=O)[C@H](CC(N)=O)NC(=O)[C@@H](C)NC1=O)C(=O)N[C@@H](CCC(=O)O)C(=O)N[C@@H](CC(=O)O)C(=O)N[C@@H](Cc1ccccc1)C(=O)N[C@@H](Cc1ccc(Br)cc1)C(=O)N[C@@H](CC(=O)O)C(=O)N[C@@H](C(C)(C)C)C(=O)N[C@H](C(N)=O)CSC3 [17-69-07-N255, Ac-G-Sar10-A-(17-69-07) D-Ala1 1Nal4 D-Ala5 4BrPhe9 tBuGly11] (Ac-G[Sar][Sar][Sar][Sar][Sar][Sar][Sar][Sar][Sar][Sar]AC[dA]NE[1Nal][dA]CEDF[Phe(4-Br)]D[Tle]C-NH2; linker 13-19-26 via TBMB)
potency / activity toward MT1-MMP, in words (MT1-MMP hemopexin domain [3]): potency which is superior to wildtype | Kd (MT1-MMP hemopexin domain [3]; Table 11, G-Sar10-A addition): 0.3 nM

C[C@H](NC(=O)CN(C)C(=O)CN(C)C(=O)CN(C)C(=O)CN(C)C(=O)CN(C)C(=O)CN(C)C(=O)CN(C)C(=O)CN(C)C(=O)CN(C)C(=O)CN(C)C(=O)CCNC(=O)c1ccc2c(c1)C(=O)OC21c2ccc(O)cc2Oc2cc(O)ccc21)C(=O)N[C@H]1CSCc2cc3cc(c2)CSC[C@H](NC(=O)[C@@H](C)NC(=O)[C@H](Cc2cccc4ccccc24)NC(=O)[C@H](CCC(=O)O)NC(=O)[C@H](CC(N)=O)NC(=O)[C@@H](C)NC1=O)C(=O)N[C@@H](CCC(=O)O)C(=O)N[C@@H](CC(=O)O)C(=O)N[C@@H](Cc1ccccc1)C(=O)N[C@@H](Cc1ccc(O)cc1)C(=O)N[C@@H](CC(=O)O)C(=O)N[C@@H](C(C)(C)C)C(=O)N[C@H](C(N)=O)CSC3 [17-69-07-N258, Fluorescein-(bAla)-Sar10-A-(17-69-07) D-Ala1 1Nal4 D-Ala5 tBuGly11] ({5FAM-βAla}-[Sar][Sar][Sar][Sar][Sar][Sar][Sar][Sar][Sar][Sar]AC[dA]NE[1Nal][dA]CEDFYD[Tle]C-NH2; linker 12-18-25 via TBMB)
Kd (MT1-MMP hemopexin domain [2]; Table 14, fluoresceinated derivative, read-out: V1T1-MMP (=MMP-14) (Kd, in nM)): 2.2 nM

CC[C@H](C)[C@@H]1NC(=O)[C@H](CC(=O)O)NC(=O)[C@H](Cc2ccc(O)cc2)NC(=O)[C@H](Cc2ccccc2)NC(=O)[C@H](CC(=O)O)NC(=O)[C@H](CCC(=O)O)NC(=O)[C@@H]2CSCc3cc(cc(c3)CSC[C@@H](C(=O)N[C@@H](C)C(N)=O)NC1=O)CSC[C@H](NC(=O)[C@H](C)N)C(=O)N[C@@H](CCSC)C(=O)N[C@@H](CC(N)=O)C(=O)N[C@@H](CCC(N)=O)C(=O)N[C@@H](Cc1ccccc1)C(=O)NCC(=O)N2 [17-69-12-N003, A-(17-69-12)-A] (H-ACMNQFGCEDFYDICA-NH2; linker 2-8-15 via TBMB)
Kd (MT1-MMP hemopexin domain [3]; Table 3, Competition, tracer A-(17-69-07)-A-Sar6-K(Fluorescein)): 3.7 ± 2.52 nM

CC[C@H](C)[C@@H]1NC(=O)[C@H](CC(=O)O)NC(=O)[C@H](Cc2ccc(O)cc2)NC(=O)[C@H](Cc2ccccc2)NC(=O)[C@H](CC(=O)O)NC(=O)[C@H](CCC(=O)O)NC(=O)[C@@H]2CSCc3cc(cc(c3)CSC[C@@H](C(=O)N[C@@H](C)C(=O)N(C)CC(=O)N(C)CC(=O)N(C)CC(=O)N(C)CC(=O)N(C)CC(=O)N(C)CC(=O)N[C@@H](CCCCNC(=O)c3ccc4c(c3)C(=O)OC43c4ccc(O)cc4Oc4cc(O)ccc43)C(N)=O)NC1=O)CSC[C@H](NC(=O)[C@H](C)N)C(=O)N[C@@H](CCSC)C(=O)N[C@@H](CC(N)=O)C(=O)N[C@@H](CCC(N)=O)C(=O)N[C@@H](Cc1ccccc1)C(=O)NCC(=O)N2 [17-69-12-N005, A-(17-69-12)-A-Sar6-K(Fl)] (H-ACMNQFGCEDFYDICA[Sar][Sar][Sar][Sar][Sar][Sar]K(5FAM)-NH2; linker 2-8-15 via TBMB)
Kd (MT1-MMP hemopexin domain [2]; [4]): 3.1 nM

CC[C@H](C)[C@@H]1NC(=O)[C@H](CC(=O)O)NC(=O)[C@H](Cc2ccc(O)cc2)NC(=O)[C@H](Cc2ccccc2)NC(=O)[C@H](CC(=O)O)NC(=O)[C@H](CCC(=O)O)NC(=O)[C@@H]2CSCc3cc(cc(c3)CSC[C@H](NC(C)=O)C(=O)N[C@@H](Cc3ccc(O)cc3)C(=O)N[C@@H](CC(N)=O)C(=O)N[C@@H](CCC(=O)O)C(=O)N[C@@H](Cc3c[nH]c4ccccc34)C(=O)NCC(=O)N2)CSC[C@@H](C(N)=O)NC1=O [17-69-44-N002, Ac-(17-69-07) Trp4] (Ac-CYNEWGCEDFYDIC-NH2; linker 1-7-14 via TBMB)
Kd (MT1-MMP hemopexin domain [3]; Table 8, substitutions at position 4): 0.75 ± 0.23 nM

CC[C@H](C)[C@@H]1NC(=O)[C@H](CC(=O)O)NC(=O)[C@H](Cc2ccc(O)cc2)NC(=O)[C@H](Cc2ccccc2)NC(=O)[C@H](CC(=O)O)NC(=O)[C@H](CCC(=O)O)NC(=O)[C@@H]2CSCc3cc(cc(c3)CSC[C@@H](C(=O)N[C@@H](C)C(=O)N(C)CC(=O)N(C)CC(=O)N(C)CC(=O)N(C)CC(=O)N(C)CC(=O)N(C)CC(=O)N[C@@H](CCCCNC(=O)c3ccc4c(c3)C(=O)OC43c4ccc(O)cc4Oc4cc(O)ccc43)C(N)=O)NC1=O)CSC[C@H](NC(=O)[C@H](C)N)C(=O)N[C@@H](CCCCN)C(=O)N[C@@H](CC(N)=O)C(=O)N[C@@H](CCCNC(=N)N)C(=O)NCC(=O)N[C@@H](Cc1ccccc1)C(=O)NCC(=O)N2 [Peptide 17-69-N004, A-(17-69)-A-Sar6-K(Fl)] (H-ACKNRGFGCEDFYDICA[Sar][Sar][Sar][Sar][Sar][Sar]K(5FAM)-NH2; linker 2-9-16 via TBMB)
Kd (MT1-MMP hemopexin domain [2]; [4]): 692 nM
